Source: the supplement of paper PMC10307832

Columns and labels:
Assay in all cases: relative viability (nuclei count vs DMSO), 5 days (fraction); higher = more cells survive
Axitinib + Tozasertib = compound: CNC(=O)c1ccccc1Sc1ccc2c(/C=C/c3ccccn3)n[nH]c2c1 [Axitinib] + Cc1cc(Nc2cc(N3CCN(C)CC3)nc(Sc3ccc(NC(=O)C4CC4)cc3)n2)n[nH]1 [Tozasertib] (partner 0.1 µM)
Procedure, shortened: (§1)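 Lung cancer cell lines in 1536-well plates were dosed by pin tool the day after seeding, either with one drug alone or with a fixed anchor-drug dose plus five library-drug doses (not always all listed) in √10 steps. After 5 days, cells were fixed and their nuclei stained in one step (final 0.05% Triton X-100, 1% formaldehyde, 1 ug/ml Hoechst), then counted on 4× images. Relative viability is the nuclei count in treated wells divided by that in vehicle wells. Values are medians of duplicate plates.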

[1] = compound: CC1=CC=C(C=C1)C(=O)CN2C3=C(CCCC3)SC2=N [Pifithrin_alpha] + N=C(N)NC(=N)NCCc1ccccc1 [Phenformin] (partner 250 µM)
Procedure, shortened: as §1

[2] = compound: CC1=CC=C(C=C1)C(=O)CN2C3=C(CCCC3)SC2=N [Pifithrin_alpha] + Nc1nc2[nH]cc(CCc3ccc(C(=O)N[C@@H](CCC(=O)O)C(=O)O)cc3)c2c(=O)[nH]1 [Pemetrexed] (partner 0.2 µM)
Procedure, shortened: as §1

Bemcentinib + Pictilisib = compound: Nc1nc(Nc2ccc3c(c2)CC[C@@H](N2CCCC2)CC3)nn1-c1cc2c(nn1)-c1ccccc1CCC2 [Bemcentinib] + CS(=O)(=O)N1CCN(Cc2cc3nc(-c4cccc5[nH]ncc45)nc(N4CCOCC4)c3s2)CC1 [Pictilisib] (partner 1 µM)
Procedure, shortened: as §1

NCI-H650
relative viability (Axitinib + Tozasertib; first compound 0.005 µM): 0.714
relative viability (Axitinib + Tozasertib; first compound 0.01581 µM): 0.734
relative viability (Axitinib + Tozasertib; first compound 0.05 µM): 0.699
relative viability (Axitinib + Tozasertib; first compound 0.1581 µM): 0.693
relative viability (Axitinib + Tozasertib; first compound 0.5 µM): 0.78
relative viability ([1]; first compound 3.162 µM): 0.49
relative viability ([1]; first compound 10 µM): 0.454
relative viability ([1]; first compound 31.62 µM): 0.421
relative viability ([1]; first compound 100 µM): 0.421
relative viability ([2]; first compound 3.162 µM): 0.938
relative viability ([2]; first compound 10 µM): 0.967
relative viability ([2]; first compound 31.62 µM): 0.831
relative viability ([2]; first compound 100 µM): 0.789
relative viability (Bemcentinib + Pictilisib; first compound 0.04 µM): 0.835
relative viability (Bemcentinib + Pictilisib; first compound 0.1265 µM): 1.08
relative viability (Bemcentinib + Pictilisib; first compound 0.4 µM): 0.887
relative viability (Bemcentinib + Pictilisib; first compound 1.265 µM): 0.766
relative viability (Bemcentinib + Pictilisib; first compound 4 µM): 0.827
